Assay results: patent US5621010A, “Urea derivatives and their use as ACAT inhibitors” (Nisshin Flour Milling Co., Ltd., priority 1993, dated 1997)

system: ACAT (liver microsome fractions of male rabbits); assay: ACAT inhibitory activity: formation of labelled cholesteryl esters from [1-14C]oleoyl-CoA and endogenous cholesterol; format: biochemical, rabbit; details: compound added at 10^-7 M
Method: The enzyme preparation, ACAT was prepared from liver microsme fractions of male rabbits according to the method of E. E. Largis et al. (Journal of Lipid Research, Vol. 30, pages 681-690, 1989). The activity was calculated by assaying the amount of the labelled cholesteryl esters formed from [1-^14 C]oleoyl-CoA and endogenous cholesterol according to the method of Kazuichi NATORI et al. (Japan J. Pharmacol., Vol. 42, pages 517-523, 1986).
The result is shown in Table 1, in which percent inhibition of the formation of the labelled cholesteryl esters with a compound added at 10^-7 M is indicated as index for the ACAT inhibitory activity.

| SMILES | ACAT Inhibition [%] |
| --- | --- |
| CC(C)(C)c1cc(CCc2c(F)cccc2NC(=O)NC2CCN(Cc3ccccc3)CC2)cc(C(C)(C)C)c1O [Example 155, N-[2-(3,5-di-tert-butyl-4-hydroxyphenethyl)-3-fluorophenyl]-N'-(1-benzyl-4-piperidyl)urea] | 94 |
| CN(C(=O)Nc1c(F)cc(F)cc1CCc1cc(C(C)(C)C)c(O)c(C(C)(C)C)c1)C1CCN(Cc2ccccc2)CC1 [Example 165, N-[2-(3,5-di-tert-butyl-4-hydroxyphenethyl)-4,6-difluorophenyl]-N'-(1-benzyl-4-piperidyl)-N'-methylurea] | 99 |
| COc1cccc(CCc2cc(C(C)(C)C)c(O)c(C(C)(C)C)c2)c1NC(=O)NC1CCN(Cc2ccccc2)CC1 [Example 163, N-[2-(3,5-di-tert-butyl-4-hydroxyphenethyl)-6-methoxyphenyl]-N'-(1-benzyl-4-piperidyl)urea] | 81 |
| CC(C)(C)c1cc(CCc2ccc(Cl)cc2NC(=O)NC2CCN(Cc3ccccc3)CC2)cc(C(C)(C)C)c1O [Example 183, N-[2-(3,5-di-tert-butyl-4-hydroxyphenethyl)-5-chlorophenyl]-N'-(1-benzyl-4-piperidyl)urea] | 91 |
| CC(C)(C)c1cc(CCc2ccccc2NC(=O)NCC(C)(C)c2ccc(F)cc2)cc(C(C)(C)C)c1O [Example 140, N-[2-(3,5-di-tert-butyl-4-hydroxyphenethyl)phenyl]-N'-[2-(4-fluorophenyl)-2-methylpropyl]urea] | 96 |
| CC(C)(C)c1cc(CCc2cc(F)cc(F)c2NC(=O)N2CCC[C@H]3CCCC[C@H]32)cc(C(C)(C)C)c1O (relative stereo) [Example 166] | 100 |
| Cc1cccc(CCc2cc(C(C)(C)C)c(O)c(C(C)(C)C)c2)c1NC(=O)NC1CCN(Cc2ccccc2)CC1 [Example 168, N-[2-(3,5-di-tert-butyl-4-hydroxyphenethyl)-6-methylphenyl]-N'-(1-benzyl-4-piperidyl)urea] | 93 |
| CC(C)(C)c1cc(CCc2ccccc2NC(=O)N[C@H](C(=O)OCc2ccccc2)c2ccccc2)cc(C(C)(C)C)c1O [Example 173, (S)-N-[2-(3,5-di-tert-butyl-4-hydroxyphenethyl)phenyl]-N'-(α-benzyloxycarbonyl)benzylurea] | 95 |
| CC(C)(C)c1cc(/C=C/c2ccccc2NC(=O)N2CCC[C@H]3CCCC[C@H]32)cc(C(C)(C)C)c1O (relative stereo) [Example 159] | 97 |
| CC(C)(C)c1cc(CCc2ccccc2NC(=O)NCC(C)(C)c2ccc(N3CCCC3)cc2)cc(C(C)(C)C)c1O [Example 141, N-[2-(3,5-di-tert-butyl-4-hydroxyphenethyl)phenyl]-N'-[2-[4-(1-pyrrolidinyl)phenyl]-2-methylpropyl]urea] | 86 |
| CC(C)(C)c1cc(CCc2cc(F)cc(F)c2NC(=O)NC2CCN(Cc3ccccc3)CC2)cc(C(C)(C)C)c1O.Cl [Example 167, N-[2-(3,5-di-tert-butyl-4-hydroxyphenethyl)-4,6-difluorophenyl]-N'-(1-benzyl-4-piperidyl)urea hydrochloride] | 100 |
| CCCN(C(=O)Nc1ccccc1CCc1cc(C(C)(C)C)c(O)c(C(C)(C)C)c1)C1CCN(Cc2ccccc2)CC1 [Example 146, N-[2-(3,5-di-tert-butyl-4-hydroxyphenethyl)phenyl]-N'-(1-benzyl-4-piperidyl)-N'-propylurea] | 85 |
| CC1(C)CCCN(C(=O)Nc2ccccc2CCc2cc(C(C)(C)C)c(O)c(C(C)(C)C)c2)C1 [Example 177, 1-[N-[2-(3,5-di-tert-butyl-4-hydroxyphenethyl)phenyl]carbamoyl]-3,3-dimethylpiperidine] | 98 |
